Test results from patent US9351981B2, “Use of PKC-iota inhibitors for the treatment of breast cancer” (UNIVERSITY OF SOUTH FLORIDA, priority 2007, dated 2016).

How the values were obtained:
PKC-ι = target: T1, PKC-ι (Homo sapiens, UniProt P41743); test: Inhibition of PKC-ι activity; assay type: biochemical
T1 sequence (P41743 10-596 limits assumed): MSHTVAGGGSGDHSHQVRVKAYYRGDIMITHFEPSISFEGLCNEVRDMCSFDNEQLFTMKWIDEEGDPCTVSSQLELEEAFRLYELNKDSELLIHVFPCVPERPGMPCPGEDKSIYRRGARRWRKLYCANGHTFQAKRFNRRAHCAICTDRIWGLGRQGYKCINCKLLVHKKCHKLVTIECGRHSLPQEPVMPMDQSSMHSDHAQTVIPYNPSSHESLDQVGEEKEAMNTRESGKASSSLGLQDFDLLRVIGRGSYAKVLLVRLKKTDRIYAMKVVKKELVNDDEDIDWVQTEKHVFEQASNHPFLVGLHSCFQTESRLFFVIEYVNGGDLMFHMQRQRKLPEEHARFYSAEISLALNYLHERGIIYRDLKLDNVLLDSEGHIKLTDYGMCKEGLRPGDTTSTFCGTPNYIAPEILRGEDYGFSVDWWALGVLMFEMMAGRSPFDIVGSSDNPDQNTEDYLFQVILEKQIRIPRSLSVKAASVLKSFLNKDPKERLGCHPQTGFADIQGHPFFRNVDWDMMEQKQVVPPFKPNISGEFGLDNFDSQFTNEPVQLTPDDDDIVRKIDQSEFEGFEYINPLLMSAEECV

cancer cells [1] = test: DNA fragmentation, TUNEL assay; assay type: cell-based
Text: (§1) In addition, the present inventors have discovered that ICA-1 promotes apoptosis of cancer cells.

[2] = tested on: MDA-MB-468 breast cancer cells; test: Proliferation of MDA-MB-468 breast cancer cells after ICA-1, viable cell count by Trypan blue exclusion; assay type: cell-based, human; conditions: vs vehicle control
Experimental: Five thousand cells were plated in T-25 cm^2 flasks. Twenty-four hours post vehicle control or ICA-1 treatment, the number of viable cells was counted by Trypan blue exclusion. Data shown are the mean+/−SD of two independent experiments.
Briefly, MDA-MB-468 breast cancer cells were treated with 0.1 μM or 0.5 μM ICA-1. Cell viability and cell count were determined 24 hours following addition of either vehicle control or ICA-1.

IKK-α/IKK-β = test: Phosphorylation of IKK-α/IKK-β; assay type: cell-based
cancer cells [3] = test: Chromatin condensation, DAPI staining of the nucleus; assay type: cell-based
Text: as §1

activity of PKC-ι (PKC-ι): potently inhibits
Structure (SMILES): NC(=O)c1ncn(C2CC(COP(=O)(O)O)C(O)C2O)c1N (stereo not drawn) [ICA-1, 1H-imidazole-4-carboxamide,5-amino-1-[2,3-dihydroxy-4-[(phosphonooxy)methyl]cyclopentyl]-,[1R-(1α, 2β, 3β, 4α)]]
DNA fragmentation in cancer cells (cancer cells [1]): induced DNA fragmentation
decrease of proliferation of MDA-MB-468 cells ([2]; 0.1 μM ICA-1, 24 hours post-treatment): 77%
decrease of proliferation of MDA-MB-468 cells ([2]; 0.5 μM ICA-1, 24 hours post-treatment, P=0.05): 50%
phosphorylation of IKK-α/IKK-β (IKK-α/IKK-β): inhibits the phosphorylation
chromatin condensation in cancer cells (cancer cells [3]): induced chromatin condensation
